Laboratory results published in the NIST ThermoML archive (doi:10.1021/je049612f).
± gives the expanded uncertainty stated by the source.

Conditions: Gas, Vibrating wire viscometry

FS(F)(F)(F)(F)F [sulfur hexafluoride]
Conditions | viscosity [mPa·s]
300 K, 26.36 kPa | 0.01529 ± 0.00089
300 K, 50.94 kPa | 0.01531 ± 0.00089
300 K, 73.62 kPa | 0.01532 ± 0.00089
300 K, 105.89 kPa | 0.01532 ± 0.00089
300 K, 125.7 kPa | 0.01533 ± 0.00089
300 K, 152.62 kPa | 0.01533 ± 0.00089
300 K, 177.62 kPa | 0.01533 ± 0.00089
300 K, 195.25 kPa | 0.01534 ± 0.00089
300 K, 227.52 kPa | 0.01534 ± 0.00089
300 K, 251.51 kPa | 0.01535 ± 0.00089
300 K, 278.58 kPa | 0.01535 ± 0.00089
300 K, 301.45 kPa | 0.01535 ± 0.00089
300 K, 327.3 kPa | 0.01536 ± 0.00089
300 K, 353.41 kPa | 0.01536 ± 0.00089
300 K, 378.55 kPa | 0.01537 ± 0.00089
300 K, 401.57 kPa | 0.01537 ± 0.00089
300 K, 425.72 kPa | 0.01538 ± 0.00089
300 K, 444.52 kPa | 0.01538 ± 0.00089
300 K, 471.71 kPa | 0.01539 ± 0.00089
300 K, 491.53 kPa | 0.0154 ± 0.00089
300 K, 538.31 kPa | 0.01541 ± 0.00089
300 K, 565.24 kPa | 0.01542 ± 0.00089
300 K, 597.98 kPa | 0.01543 ± 0.00089
300 K, 634.58 kPa | 0.01544 ± 0.00089
300 K, 665.1 kPa | 0.01545 ± 0.00089
300 K, 700.96 kPa | 0.01546 ± 0.00089
300 K, 731.45 kPa | 0.01547 ± 0.00089
300 K, 763.98 kPa | 0.01548 ± 0.00089
300 K, 800.2 kPa | 0.01549 ± 0.00089
300 K, 835.89 kPa | 0.01551 ± 0.00089
300 K, 869.95 kPa | 0.01553 ± 0.00089
300 K, 898.41 kPa | 0.01554 ± 0.00089
300 K, 930.75 kPa | 0.01556 ± 0.00089
300 K, 968.74 kPa | 0.01558 ± 0.00089
300 K, 997.76 kPa | 0.01559 ± 0.00089
300 K, 1036.4 kPa | 0.01561 ± 0.0009
300 K, 1090.2 kPa | 0.01565 ± 0.0009
300 K, 1140.1 kPa | 0.01568 ± 0.0009
300 K, 1181.5 kPa | 0.0157 ± 0.0009
300 K, 1223.6 kPa | 0.01574 ± 0.0009
300 K, 1280.6 kPa | 0.01578 ± 0.0009
300 K, 1333.3 kPa | 0.01582 ± 0.0009
300 K, 1380.9 kPa | 0.01586 ± 0.0009
300 K, 1417.9 kPa | 0.01589 ± 0.0009
300 K, 1493.3 kPa | 0.01596 ± 0.0009
300 K, 1537.7 kPa | 0.016 ± 0.0009
300 K, 1594.6 kPa | 0.01606 ± 0.0009
300 K, 1637.3 kPa | 0.01611 ± 0.0009
300 K, 1680.6 kPa | 0.01616 ± 0.0009
300 K, 1735.3 kPa | 0.01622 ± 0.0009
300 K, 1784.4 kPa | 0.01629 ± 0.0009
300 K, 1826.5 kPa | 0.01635 ± 0.0009
300 K, 1865.1 kPa | 0.01641 ± 0.0009
300 K, 1927.3 kPa | 0.0165 ± 0.0009
300 K, 1980 kPa | 0.01659 ± 0.0009
300 K, 2039.3 kPa | 0.0167 ± 0.0009
316 K, 112.75 kPa | 0.01605 ± 0.0009
316 K, 143.54 kPa | 0.01605 ± 0.0009
316 K, 174.6 kPa | 0.01606 ± 0.0009
316 K, 197.59 kPa | 0.01606 ± 0.0009
316 K, 218.05 kPa | 0.01607 ± 0.0009
316 K, 245.03 kPa | 0.01607 ± 0.0009
316 K, 262.84 kPa | 0.01607 ± 0.0009
316 K, 287.46 kPa | 0.01608 ± 0.0009
316 K, 307.35 kPa | 0.01608 ± 0.0009
316 K, 332.06 kPa | 0.01609 ± 0.0009
316 K, 357.7 kPa | 0.0161 ± 0.0009
316 K, 383.76 kPa | 0.0161 ± 0.0009
316 K, 402.43 kPa | 0.01611 ± 0.0009
316 K, 428.01 kPa | 0.01611 ± 0.0009
316 K, 468.39 kPa | 0.01613 ± 0.0009
316 K, 490.91 kPa | 0.01613 ± 0.0009
316 K, 519.48 kPa | 0.01614 ± 0.0009
316 K, 548.34 kPa | 0.01615 ± 0.0009
316 K, 585.01 kPa | 0.01616 ± 0.0009
316 K, 614.48 kPa | 0.01617 ± 0.0009
316 K, 650.85 kPa | 0.01618 ± 0.0009
316 K, 685.07 kPa | 0.0162 ± 0.0009
316 K, 712.63 kPa | 0.0162 ± 0.0009
316 K, 749.05 kPa | 0.01622 ± 0.0009
316 K, 780.4 kPa | 0.01623 ± 0.0009
316 K, 810.74 kPa | 0.01624 ± 0.0009
316 K, 843.2 kPa | 0.01626 ± 0.0009
316 K, 882.81 kPa | 0.01628 ± 0.0009
316 K, 913.9 kPa | 0.01629 ± 0.0009
316 K, 955.92 kPa | 0.01631 ± 0.0009
316 K, 994.72 kPa | 0.01634 ± 0.0009
316 K, 1031.1 kPa | 0.01635 ± 0.0009
316 K, 1084.1 kPa | 0.01638 ± 0.0009
316 K, 1120.4 kPa | 0.01641 ± 0.0009
316 K, 1178.3 kPa | 0.01644 ± 0.0009
316 K, 1215.2 kPa | 0.01646 ± 0.0009
316 K, 1257.3 kPa | 0.0165 ± 0.0009
316 K, 1314.3 kPa | 0.01654 ± 0.0009
316 K, 1374.4 kPa | 0.01658 ± 0.0009
316 K, 1422.9 kPa | 0.01662 ± 0.0009
316 K, 1465.6 kPa | 0.01665 ± 0.0009
316 K, 1530.4 kPa | 0.01671 ± 0.0009
316 K, 1572.7 kPa | 0.01674 ± 0.0009
316 K, 1609.8 kPa | 0.01678 ± 0.0009
316 K, 1667.2 kPa | 0.01684 ± 0.0009
316 K, 1724.2 kPa | 0.01689 ± 0.0009
316 K, 1772.5 kPa | 0.01694 ± 0.00091
316 K, 1821.1 kPa | 0.017 ± 0.00091
316 K, 1860.3 kPa | 0.01704 ± 0.00091
316 K, 1922.7 kPa | 0.01711 ± 0.00091
316 K, 1988.5 kPa | 0.0172 ± 0.00091
316 K, 2021.6 kPa | 0.01725 ± 0.00091
316 K, 2087.4 kPa | 0.01733 ± 0.00091
316 K, 2155.2 kPa | 0.01744 ± 0.00091
316 K, 2223.8 kPa | 0.01755 ± 0.00091
316 K, 2273.2 kPa | 0.01763 ± 0.00091
316 K, 2319.1 kPa | 0.01771 ± 0.00091
316 K, 2375.8 kPa | 0.01781 ± 0.00091
316 K, 2448.5 kPa | 0.01796 ± 0.00091
316 K, 2510 kPa | 0.01809 ± 0.00092
316 K, 2587.2 kPa | 0.01826 ± 0.00092
316 K, 2658.2 kPa | 0.01844 ± 0.00092
316 K, 2724.3 kPa | 0.01862 ± 0.00092
316 K, 2792.7 kPa | 0.01883 ± 0.00092
316 K, 2860.9 kPa | 0.01906 ± 0.00092
316 K, 2916.5 kPa | 0.01925 ± 0.00092
316 K, 2981.1 kPa | 0.0195 ± 0.00093
316 K, 3007.9 kPa | 0.01963 ± 0.00093
316 K, 3070 kPa | 0.01992 ± 0.00093
316 K, 3135.2 kPa | 0.02025 ± 0.00093
321 K, 77.46 kPa | 0.01627 ± 0.0009
321 K, 97.02 kPa | 0.01627 ± 0.0009
321 K, 114.16 kPa | 0.01627 ± 0.0009
321 K, 146.57 kPa | 0.01628 ± 0.0009
321 K, 169.96 kPa | 0.01629 ± 0.0009
321 K, 205.62 kPa | 0.01629 ± 0.0009
321 K, 239.58 kPa | 0.0163 ± 0.0009
321 K, 264.1 kPa | 0.0163 ± 0.0009
321 K, 293.39 kPa | 0.01631 ± 0.0009
321 K, 339.65 kPa | 0.01632 ± 0.0009
321 K, 374.89 kPa | 0.01633 ± 0.0009
321 K, 400.93 kPa | 0.01634 ± 0.0009
321 K, 428.98 kPa | 0.01634 ± 0.0009
321 K, 457.31 kPa | 0.01635 ± 0.0009
321 K, 488.99 kPa | 0.01636 ± 0.0009
321 K, 523.86 kPa | 0.01637 ± 0.0009
321 K, 563.16 kPa | 0.01638 ± 0.0009
321 K, 592.18 kPa | 0.01639 ± 0.0009
321 K, 633.22 kPa | 0.01641 ± 0.0009
321 K, 681.18 kPa | 0.01643 ± 0.0009
321 K, 732.46 kPa | 0.01644 ± 0.0009
321 K, 790.88 kPa | 0.01647 ± 0.0009
321 K, 823.55 kPa | 0.01648 ± 0.0009
321 K, 857.52 kPa | 0.0165 ± 0.0009
321 K, 896.2 kPa | 0.01652 ± 0.0009
321 K, 934.23 kPa | 0.01654 ± 0.0009
321 K, 969 kPa | 0.01655 ± 0.0009
321 K, 1031.4 kPa | 0.01658 ± 0.0009
321 K, 1089.4 kPa | 0.01662 ± 0.0009
321 K, 1125 kPa | 0.01664 ± 0.0009
321 K, 1178.7 kPa | 0.01667 ± 0.0009
321 K, 1223.2 kPa | 0.0167 ± 0.0009
321 K, 1282.4 kPa | 0.01674 ± 0.0009
321 K, 1340 kPa | 0.01678 ± 0.0009
321 K, 1386.2 kPa | 0.01682 ± 0.0009
321 K, 1431.8 kPa | 0.01686 ± 0.0009
321 K, 1483.3 kPa | 0.01689 ± 0.0009
321 K, 1538.9 kPa | 0.01694 ± 0.00091
321 K, 1647 kPa | 0.01703 ± 0.00091
321 K, 1693.1 kPa | 0.01708 ± 0.00091
321 K, 1744.5 kPa | 0.01713 ± 0.00091
321 K, 1788.6 kPa | 0.01718 ± 0.00091
321 K, 1847.4 kPa | 0.01724 ± 0.00091
